Reference: patent US20030207819A1, “Compositions and methods for treating inflammatory connective tissue diseases” (priority 2002, published 2003)
“Also recorded” adds a separate entry of the source.

Legend:
Type in all cases: in vivo, human
[1] = test system: patient with chondrocalcinosis leading to pseudorheumatoid pseudogout syndrome; test: Example 4: clarithromycin re-challenge of Example 3 patient, symptoms and laboratory assessments
Experimental: Subsequent to the observations made in Example 3, the patient was re-challenged with clarithromycin, and re-evaluated as to symptomatic efficiency. In parallel with clinical observations, laboratory assessments including erythrocyte sedimentation rate, C-reactive 1 5 protein, and serum interleukins 1 and 6 were measured. The laboratory results are illustrated in Table 2.
On Jun. 15, 2002 the patient from Example 3 underwent a right pneumonectomy for treatment of recurrent lung cancer. During that hospitalization, clarithromycin was discontinued.
The patient underwent formal re-challenge with clarithromycin on Aug. 19, 2002 (Table 2). At that time their medications included ibuprofen at 400 mg/day, acetaminophen at 500 mg/as needed, prednisone at 5 mg/daily, CELEXA™ (Forest Pharmaceuticals, Inc.) at […], REMURON® (Organon Inc.) at 7.5 mg/h.s., DURICEF® (Bristol) at 500 mg b.i.d., TIMOPTIC® eye drops (Merck & Co.), and multi-vitamins. […] Clarithromycin at 500 mg b.i.d. was restarted on Aug. 20, 2002. When seen on Aug. […] 19, 2002. […] 28, 2002. On Sep. […] Ibuprofen was decreased to […] on Sep. 5, 2002. On Sep. […] On Sep.

[2] = test system: patient with chondrocalcinosis leading to pseudorheumatoid pseudogout syndrome; test: Example 3: clinical observation of patient on clarithromycin; settings: person; clarithromycin 500 mg b.i.d. begun two weeks prior for pneumonia
Experimental: A patient has severe ditTuse generalized chondrocalcinosis leading to pseudorheumatoid pseudogout syndrome. Given the intensity of their chronic synovitis and the lack of response to steroids as well as NSAIDs, they were put on methotrexate, 10 mg/week and infliximab ([…]®, Centocor, Inc.), after which they did satisfactorily. The patient had bilateral total knee replacements and, subsequently was taken off the infliximab when they developed a knee infection postoperatively. The patient continued to have diffuse aches and pains and joint swelling. When seen in the office on Mar. 12, 2002, they spontaneously asked whether the medicine they were taking for their pneumonia could have an effect on their arthritis. Apparently they had begun clarithromycin 500 mg b.i.d. for their pneumonia two weeks prior and said they had “never felt as well” with respect to their joint symptoms as they had during the subsequent several days. They continued to feel much improved and asked if they could stay on the antibiotic.

[3] = test system: patient with undifferentiated connective tissue disease; test: Example 1: clinical observation of patient on clarithromycin; settings: person
Text: We elected to continue them on this antibiotic. […] Because the patient was on Lodine (NSAID) at the same time, we elected to see if they could stop the Lodine and still have relief of symptoms.

[4] = Aug. 27, 2002, on clarithromycin
[5] = Oct. 8, 2002, off clarithromycin
[6] = Sep. 4, 2002, on clarithromycin
[7] = Sep. 9, 2002, on clarithromycin
[8] = Sep. 23, 2002, off clarithromycin

Compound: CC[C@H]1OC(=O)[C@H](C)[C@@H](O[C@H]2C[C@@](C)(OC)[C@@H](O)[C@H](C)O2)[C@H](C)[C@@H](O[C@@H]2O[C@H](C)C[C@H](N(C)C)[C@H]2O)[C@](C)(OC)C[C@@H](C)C(=O)[C@H](C)[C@@H](O)[C@]1(C)O [clarithromycin, 6-O-methylerythromycin]
- CPR [1, 4]: 0.74 mg/dL
- ESR [1, 4]: 18 mm/hr
- IL-6 [1, 4]: 6.8 pg/mL
- Symptoms ([1]; Aug. 27, 2002, on clarithromycin 500 mg BID since Aug. 20, 2002, compared to baseline Aug. 19, 2002): had not observed improvement; also recorded: No change
- CPR [1, 5]: 0.77 mg/dL
- ESR [1, 5]: 10 mm/hr
- IL-6 [1, 5]: 1.8 pg/mL
- Symptoms ([1]; Oct. 8, 2002, off clarithromycin, prednisone 5 mg QD): continued active
- CPR [1, 6]: 0.78 mg/dL
- ESR [1, 6]: 10 mm/hr
- IL-6 [1, 6]: 2.5 pg/mL
- Symptoms ([1]; Sep. 4, 2002, on clarithromycin, ibuprofen increased to 800 mg/day on Aug. 28, 2002): 40% better
- CPR [1, 7]: 1.06 mg/dL
- ESR [1, 7]: 11 mm/hr
- IL-6 [1, 7]: 4.5 pg/mL
- Symptoms ([1]; Sep. 9, 2002, on clarithromycin, discontinued at this visit, ibuprofen 600 mg/day): No change
- Symptoms ([1]; Sep. 16, 2002, off clarithromycin, ibuprofen 400 mg/day): Worse
- IL-6 ([1]; Sep. 16, 2002, one week following clarithromycin discontinuation, baseline 2.2): 33.1 pg/mL
- ESR [1, 8]: 37 mm/hr
- IL-6 [1, 8]: 6.4 pg/mL
- Symptoms [1, 8]: continued worsening; also recorded: Worse
- CPR ([1]; Sep. 23, 2002, off clarithromycin, baseline 0.85): 3.51 mg/dL
- joints ([1]; clarithromycin begun again as antimicrobial therapy after pneumonectomy): once again improved
- arthritis symptoms ([1]; five to six days following discontinuation of clarithromycin, hospitalization June 2002): significantly worse
- ESR ([1]; off clarithromycin, increase from 11 mm at baseline, date not given in the text): 37 mm
- change in IL-1 ([1]; over the re-challenge Aug. 19 to Oct. 8, 2002): No significant change
- joint symptoms [2]: much improved
- Symptoms ([3]; back on 500 mg/bid after 250 mg/bid): improved essentially completely
- symptoms with respect to connective tissue changes ([3]; clarithromycin 500 mg b.i.d. begun December 1998): significantly improved
- Symptoms ([3]; dose reduced to 250 mg/bid): symptoms returned
- undifferentiated connective disease status ([3]; last seen Feb. 12, 2002, continued clarithromycin): under control
- joint symptoms ([3]; reduced dose of 750 mg/day): increased swelling of the hands, painful wrists, knee swelling and hand stiffness
